PMC12136037, “Type II kinase inhibitors that target Parkinson’s disease–associated LRRK2” (Science Advances, 2025)

Assays:
Assay in all cases: 33PanQinase kinome-wide selectivity profile (Reaction Biology)
Assay type in all cases: biochemical
350 wild-type kinases [1] = biological target: T1, 350 wild-type kinases (Homo sapiens, UniProt Q99683); conditions: kinase ASK1, ATP 3 µM, singlicate
T1 construct: purchased Reaction Biology (assay service)
Procedure: (§1) Compound RN341 was tested at two concentrations of 1 and 10 μM against a panel of 350 wild-type kinases in the ^33PanQinase assay. The assay was performed by Reaction Biology (www.reactionbiology.com/services/kinase-assays/kinase-panel-screening/).

350 wild-type kinases [2] = biological target: T2, 350 wild-type kinases (Homo sapiens, UniProt Q8N5S9); conditions: kinase CAMKK1, ATP 3 µM, singlicate
T2 construct: purchased Reaction Biology (assay service)
Procedure: as §1

350 wild-type kinases [3] = biological target: T3, 350 wild-type kinases (Homo sapiens, UniProt P21127); conditions: kinase CDK11B/CycK, ATP 0,1 µM, singlicate
T3 construct: purchased Reaction Biology (assay service)
Procedure: as §1

350 wild-type kinases [4] = conditions: 10 μM, 350 kinases
Procedure: as §1

350 wild-type kinases [5] = biological target: T4, 350 wild-type kinases (Homo sapiens, UniProt P50750); conditions: singlicate; for Residual activity (% of control), CDK9/CycK: kinase CDK9/CycK, ATP 1 µM; for Residual activity (% of control), CDK9/CycT1: kinase CDK9/CycT1, ATP 0,3 µM
T4 construct: purchased Reaction Biology (assay service)
Procedure: as §1

350 wild-type kinases [6] = biological target: T5, 350 wild-type kinases (Homo sapiens, UniProt P36896); conditions: kinase ACVR1B, ATP 3 µM, singlicate
T5 construct: purchased Reaction Biology (assay service)
Procedure: as §1

350 wild-type kinases [7] = biological target: T6, 350 wild-type kinases (Homo sapiens, UniProt O60566); conditions: kinase BUB1B, ATP 0,3 µM, singlicate
T6 construct: purchased Reaction Biology (assay service)
Procedure: as §1

350 wild-type kinases [8] = biological target: T7, 350 wild-type kinases (Homo sapiens, UniProt P00519); conditions: kinase ABL1, ATP 0,3 µM, singlicate
T7 construct: purchased Reaction Biology (assay service)
Procedure: as §1

350 wild-type kinases [9] = biological target: T8, 350 wild-type kinases (Homo sapiens, UniProt Q00537); conditions: kinase CDK17/p35NCK, ATP 3 µM, singlicate
T8 construct: purchased Reaction Biology (assay service)
Procedure: as §1

350 wild-type kinases [10] = biological target: T9, 350 wild-type kinases (Homo sapiens, UniProt Q14004); conditions: kinase CDK13/CycK, ATP 0,1 µM, singlicate
T9 construct: purchased Reaction Biology (assay service)
Procedure: as §1

350 wild-type kinases [11] = biological target: T10, 350 wild-type kinases (Homo sapiens, UniProt P49761); conditions: kinase CLK3, ATP 0,3 µM, singlicate
T10 construct: purchased Reaction Biology (assay service)
Procedure: as §1

350 wild-type kinases [12] = biological target: T11, 350 wild-type kinases (Homo sapiens, UniProt Q13627); conditions: kinase DYRK1A, ATP 1 µM, singlicate
T11 construct: purchased Reaction Biology (assay service)
Procedure: as §1

350 wild-type kinases [13] = biological target: T12, 350 wild-type kinases (Homo sapiens, UniProt O94921); conditions: kinase CDK14/CycY, ATP 0,1 µM, singlicate
T12 construct: purchased Reaction Biology (assay service)
Procedure: as §1

350 wild-type kinases [14] = biological target: T13, 350 wild-type kinases (Homo sapiens, UniProt Q04771); conditions: kinase ACVR1, ATP 3 µM, singlicate
T13 construct: purchased Reaction Biology (assay service)
Procedure: as §1

350 wild-type kinases [15] = biological target: T14, 350 wild-type kinases (Homo sapiens, UniProt P41279); conditions: kinase COT, ATP 0,3 µM, singlicate
T14 construct: purchased Reaction Biology (assay service)
Procedure: as §1

350 wild-type kinases [16] = biological target: T15, 350 wild-type kinases (Homo sapiens, UniProt Q9Y6M4); conditions: kinase CK1gamma3, ATP 0,1 µM, singlicate
T15 construct: purchased Reaction Biology (assay service)
Procedure: as §1

350 wild-type kinases [17] = biological target: T16, 350 wild-type kinases (Homo sapiens, UniProt Q8IZL9); conditions: singlicate; for Residual activity (% of control), CDK20/CycH: kinase CDK20/CycH, ATP 0,1 µM; for Residual activity (% of control), CDK20/CycT1: kinase CDK20/CycT1, ATP 1 µM
T16 construct: purchased Reaction Biology (assay service)
Procedure: as §1

350 wild-type kinases [18] = biological target: T17, 350 wild-type kinases (Homo sapiens, UniProt O43293); conditions: kinase DAPK3, ATP 0,1 µM, singlicate
T17 construct: purchased Reaction Biology (assay service)
Procedure: as §1

350 wild-type kinases [19] = biological target: T18, 350 wild-type kinases (Homo sapiens, UniProt Q8IU85); conditions: kinase CAMK1D, ATP 0,3 µM, singlicate
T18 construct: purchased Reaction Biology (assay service)
Procedure: as §1

350 wild-type kinases [20] = biological target: T19, 350 wild-type kinases (Homo sapiens, UniProt Q9HCP0); conditions: kinase CK1gamma1, ATP 0,1 µM, singlicate
T19 construct: purchased Reaction Biology (assay service)
Procedure: as §1

350 wild-type kinases [21] = biological target: T20, 350 wild-type kinases (Homo sapiens, UniProt Q07912); conditions: kinase ACK1, ATP 1 µM, singlicate
T20 construct: purchased Reaction Biology (assay service)
Procedure: as §1

350 wild-type kinases [22] = biological target: T21, 350 wild-type kinases (Homo sapiens, UniProt P49336); conditions: kinase CDK8/CycC, ATP 1 µM, singlicate
T21 construct: purchased Reaction Biology (assay service)
Procedure: as §1

350 wild-type kinases [23] = biological target: T22, 350 wild-type kinases (Homo sapiens, UniProt Q16832); conditions: kinase DDR2, ATP 0,1 µM, singlicate
T22 construct: purchased Reaction Biology (assay service)
Procedure: as §1

350 wild-type kinases [24] = biological target: T23, 350 wild-type kinases (Homo sapiens, UniProt O00238); conditions: kinase BMPR1B, ATP 3 µM, singlicate
T23 construct: purchased Reaction Biology (assay service)
Procedure: as §1

T4 sequence (P50750 whole entry): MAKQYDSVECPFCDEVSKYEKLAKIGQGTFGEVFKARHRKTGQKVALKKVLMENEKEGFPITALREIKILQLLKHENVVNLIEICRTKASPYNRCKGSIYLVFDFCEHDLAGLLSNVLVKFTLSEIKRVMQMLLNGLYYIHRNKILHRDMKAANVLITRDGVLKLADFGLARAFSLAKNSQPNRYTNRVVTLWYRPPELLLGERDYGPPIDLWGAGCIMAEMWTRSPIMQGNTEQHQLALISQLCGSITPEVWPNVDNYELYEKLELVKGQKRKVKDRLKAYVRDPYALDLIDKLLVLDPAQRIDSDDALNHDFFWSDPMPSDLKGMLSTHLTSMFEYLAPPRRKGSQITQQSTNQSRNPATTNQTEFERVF
T16 sequence (Q8IZL9 whole entry): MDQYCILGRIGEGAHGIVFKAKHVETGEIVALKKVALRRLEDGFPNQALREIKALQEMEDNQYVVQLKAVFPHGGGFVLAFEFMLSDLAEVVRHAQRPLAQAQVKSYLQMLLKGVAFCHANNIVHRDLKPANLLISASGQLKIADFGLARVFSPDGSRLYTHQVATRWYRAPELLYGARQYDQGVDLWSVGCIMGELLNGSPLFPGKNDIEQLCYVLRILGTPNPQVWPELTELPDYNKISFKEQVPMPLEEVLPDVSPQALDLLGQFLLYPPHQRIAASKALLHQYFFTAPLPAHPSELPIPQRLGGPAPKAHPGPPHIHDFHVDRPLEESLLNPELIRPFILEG
T2 sequence (Q8N5S9 whole entry): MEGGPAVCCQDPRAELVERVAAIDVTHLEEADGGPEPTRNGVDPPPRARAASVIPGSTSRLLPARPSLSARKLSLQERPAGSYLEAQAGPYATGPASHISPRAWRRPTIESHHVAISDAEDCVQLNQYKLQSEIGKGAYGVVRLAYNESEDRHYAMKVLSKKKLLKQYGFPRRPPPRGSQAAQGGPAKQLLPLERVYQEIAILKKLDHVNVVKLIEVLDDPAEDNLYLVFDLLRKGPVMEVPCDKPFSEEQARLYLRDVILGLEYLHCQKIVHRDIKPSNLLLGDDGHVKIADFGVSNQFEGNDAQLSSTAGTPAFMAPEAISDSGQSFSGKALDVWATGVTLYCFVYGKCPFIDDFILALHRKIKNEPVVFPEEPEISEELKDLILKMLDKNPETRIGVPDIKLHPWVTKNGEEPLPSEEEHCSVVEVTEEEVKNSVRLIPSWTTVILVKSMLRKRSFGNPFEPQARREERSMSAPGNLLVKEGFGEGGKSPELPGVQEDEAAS
T15 sequence (Q9Y6M4 whole entry): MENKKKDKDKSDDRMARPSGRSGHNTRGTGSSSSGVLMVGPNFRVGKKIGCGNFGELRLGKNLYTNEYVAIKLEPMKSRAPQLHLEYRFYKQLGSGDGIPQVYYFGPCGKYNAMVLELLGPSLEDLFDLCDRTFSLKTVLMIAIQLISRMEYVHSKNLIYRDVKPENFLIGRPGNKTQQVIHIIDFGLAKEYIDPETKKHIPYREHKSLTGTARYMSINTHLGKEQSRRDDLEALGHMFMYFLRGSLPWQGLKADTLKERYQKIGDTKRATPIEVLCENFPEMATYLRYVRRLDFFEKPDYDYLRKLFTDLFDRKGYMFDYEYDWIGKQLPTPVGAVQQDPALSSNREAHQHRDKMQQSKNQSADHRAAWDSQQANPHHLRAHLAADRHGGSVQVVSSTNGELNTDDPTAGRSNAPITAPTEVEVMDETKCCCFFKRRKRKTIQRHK
T9 sequence (Q14004 whole entry): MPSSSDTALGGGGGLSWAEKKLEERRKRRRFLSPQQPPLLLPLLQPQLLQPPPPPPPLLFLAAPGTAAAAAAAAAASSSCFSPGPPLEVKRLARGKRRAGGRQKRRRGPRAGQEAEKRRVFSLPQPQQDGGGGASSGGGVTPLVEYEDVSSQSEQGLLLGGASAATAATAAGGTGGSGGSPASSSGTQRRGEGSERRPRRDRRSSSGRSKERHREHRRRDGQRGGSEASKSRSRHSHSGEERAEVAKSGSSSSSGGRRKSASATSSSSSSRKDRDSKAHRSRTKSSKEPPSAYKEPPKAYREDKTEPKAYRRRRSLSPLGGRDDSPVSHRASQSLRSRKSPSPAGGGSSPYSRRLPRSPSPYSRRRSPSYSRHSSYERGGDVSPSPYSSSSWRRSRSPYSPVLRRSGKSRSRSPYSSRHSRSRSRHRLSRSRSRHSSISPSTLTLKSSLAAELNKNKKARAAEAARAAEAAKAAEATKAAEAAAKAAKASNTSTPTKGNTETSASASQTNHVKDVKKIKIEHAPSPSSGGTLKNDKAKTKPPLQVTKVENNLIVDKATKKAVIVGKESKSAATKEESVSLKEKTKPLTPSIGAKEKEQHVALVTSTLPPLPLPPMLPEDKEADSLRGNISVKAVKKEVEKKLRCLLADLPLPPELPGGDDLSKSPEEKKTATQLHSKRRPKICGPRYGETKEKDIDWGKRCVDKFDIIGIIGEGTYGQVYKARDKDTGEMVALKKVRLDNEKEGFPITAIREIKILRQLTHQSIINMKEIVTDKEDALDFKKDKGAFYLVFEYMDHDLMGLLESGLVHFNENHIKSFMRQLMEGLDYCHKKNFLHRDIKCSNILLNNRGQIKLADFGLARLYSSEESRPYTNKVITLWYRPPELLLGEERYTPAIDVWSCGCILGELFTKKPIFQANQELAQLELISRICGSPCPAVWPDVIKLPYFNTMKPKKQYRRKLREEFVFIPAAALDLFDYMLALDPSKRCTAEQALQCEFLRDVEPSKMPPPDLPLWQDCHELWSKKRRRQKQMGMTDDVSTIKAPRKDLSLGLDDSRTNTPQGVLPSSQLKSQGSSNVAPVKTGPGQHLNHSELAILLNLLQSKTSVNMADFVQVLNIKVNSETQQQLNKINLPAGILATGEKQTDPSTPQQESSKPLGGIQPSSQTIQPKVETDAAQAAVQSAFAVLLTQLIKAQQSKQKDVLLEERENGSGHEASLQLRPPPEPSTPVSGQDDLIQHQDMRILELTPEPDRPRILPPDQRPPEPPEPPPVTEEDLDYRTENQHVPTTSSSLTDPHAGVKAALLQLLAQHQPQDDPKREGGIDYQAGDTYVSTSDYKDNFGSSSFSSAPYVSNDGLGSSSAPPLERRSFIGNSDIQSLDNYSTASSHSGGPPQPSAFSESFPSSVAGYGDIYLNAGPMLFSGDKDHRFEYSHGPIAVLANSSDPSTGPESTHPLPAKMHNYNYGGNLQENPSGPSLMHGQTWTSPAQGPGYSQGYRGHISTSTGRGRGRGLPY
T6 sequence (O60566 whole entry): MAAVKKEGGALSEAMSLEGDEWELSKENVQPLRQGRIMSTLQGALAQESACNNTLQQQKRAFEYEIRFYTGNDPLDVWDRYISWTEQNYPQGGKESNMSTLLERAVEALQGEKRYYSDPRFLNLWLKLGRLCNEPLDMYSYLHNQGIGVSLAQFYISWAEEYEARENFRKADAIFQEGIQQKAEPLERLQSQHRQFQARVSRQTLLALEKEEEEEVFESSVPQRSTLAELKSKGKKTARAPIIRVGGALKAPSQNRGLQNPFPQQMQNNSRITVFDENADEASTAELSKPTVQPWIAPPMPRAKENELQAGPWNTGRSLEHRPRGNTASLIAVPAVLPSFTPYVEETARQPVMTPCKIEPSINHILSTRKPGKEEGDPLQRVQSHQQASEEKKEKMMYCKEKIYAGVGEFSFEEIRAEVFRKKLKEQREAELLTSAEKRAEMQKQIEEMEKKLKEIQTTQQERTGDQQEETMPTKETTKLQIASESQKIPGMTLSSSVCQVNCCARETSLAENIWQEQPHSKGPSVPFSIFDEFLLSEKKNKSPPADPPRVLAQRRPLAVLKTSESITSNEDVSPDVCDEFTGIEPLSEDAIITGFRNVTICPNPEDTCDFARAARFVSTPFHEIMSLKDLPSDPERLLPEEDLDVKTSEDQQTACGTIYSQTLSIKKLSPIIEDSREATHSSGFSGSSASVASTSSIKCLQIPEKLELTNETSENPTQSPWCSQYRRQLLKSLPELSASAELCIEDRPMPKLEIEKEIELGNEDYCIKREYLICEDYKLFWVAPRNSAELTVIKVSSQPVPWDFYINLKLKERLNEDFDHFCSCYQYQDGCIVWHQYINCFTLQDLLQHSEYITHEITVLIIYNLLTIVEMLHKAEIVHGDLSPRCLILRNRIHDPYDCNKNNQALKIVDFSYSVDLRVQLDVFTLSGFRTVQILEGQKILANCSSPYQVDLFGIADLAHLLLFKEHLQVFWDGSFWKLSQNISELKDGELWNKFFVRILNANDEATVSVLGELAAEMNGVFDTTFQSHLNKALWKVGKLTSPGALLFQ
T23 sequence (O00238 14-502): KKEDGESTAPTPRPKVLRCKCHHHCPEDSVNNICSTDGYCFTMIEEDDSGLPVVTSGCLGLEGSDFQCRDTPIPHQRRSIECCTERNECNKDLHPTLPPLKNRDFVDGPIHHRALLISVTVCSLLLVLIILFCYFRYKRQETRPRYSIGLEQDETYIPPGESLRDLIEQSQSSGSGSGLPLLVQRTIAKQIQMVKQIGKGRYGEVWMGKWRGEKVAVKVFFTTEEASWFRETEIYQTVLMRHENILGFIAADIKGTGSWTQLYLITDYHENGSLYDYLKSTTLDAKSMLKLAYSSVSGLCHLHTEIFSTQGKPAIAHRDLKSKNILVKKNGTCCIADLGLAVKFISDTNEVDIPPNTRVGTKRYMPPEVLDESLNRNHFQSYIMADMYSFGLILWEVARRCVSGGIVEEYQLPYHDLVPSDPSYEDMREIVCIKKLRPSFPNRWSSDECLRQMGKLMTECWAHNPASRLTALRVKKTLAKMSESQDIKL

In the case of `CCSc1nc(NC)c2c(-c3cccc(NC(=O)Nc4cc(C(C)(C)C)nn4-c4ccc(C)cc4)c3)c[nH]c2n1` [Compound 32], the “Residual activity (% of control), ASK1” value (350 wild-type kinases [1]; Assay Conc. 1.0E-05 M) is reported as 71 % of control, the “Residual activity (% of control), ASK1” value (350 wild-type kinases [1]; Assay Conc. 1.0E-06 M) is reported as 103 % of control and the “Residual activity (% of control), CAMKK1” value (350 wild-type kinases [2]; Assay Conc. 1.0E-05 M) is reported as 122 % of control. For the same compound, the “Residual activity (% of control), CAMKK1” value (350 wild-type kinases [2]; Assay Conc. 1.0E-06 M) was 114 % of control, the “Residual activity (% of control), CDK11B/CycK” value (350 wild-type kinases [3]; Assay Conc. 1.0E-05 M) was 99 % of control and the “Residual activity (% of control), CDK11B/CycK” value (350 wild-type kinases [3]; Assay Conc. 1.0E-06 M) was 96 % of control. For the same compound, the “number of kinases inhibited with less than 30% residual activity” value (350 wild-type kinases [4]) was 10, the “Residual activity (% of control), CDK9/CycK” value (350 wild-type kinases [5]; Assay Conc. 1.0E-05 M) was 86 % of control and the “Residual activity (% of control), CDK9/CycK” value (350 wild-type kinases [5]; Assay Conc. 1.0E-06 M) was 111 % of control. For the same compound, the “Residual activity (% of control), CDK9/CycT1” value (350 wild-type kinases [5]; Assay Conc. 1.0E-05 M) was 85 % of control, the “Residual activity (% of control), CDK9/CycT1” value (350 wild-type kinases [5]; Assay Conc. 1.0E-06 M) was 106 % of control and the “Residual activity (% of control), ACVR1B” value (350 wild-type kinases [6]; Assay Conc. 1.0E-05 M) was 76 % of control. For the same compound, the “Residual activity (% of control), ACVR1B” value (350 wild-type kinases [6]; Assay Conc. 1.0E-06 M) was 93 % of control, the “Residual activity (% of control), BUB1B” value (350 wild-type kinases [7]; Assay Conc. 1.0E-05 M) was 85 % of control and the “Residual activity (% of control), BUB1B” value (350 wild-type kinases [7]; Assay Conc. 1.0E-06 M) was 119 % of control. For the same compound, the “Residual activity (% of control), ABL1” value (350 wild-type kinases [8]; Assay Conc. 1.0E-05 M) was 70 % of control, the “Residual activity (% of control), ABL1” value (350 wild-type kinases [8]; Assay Conc. 1.0E-06 M) was 102 % of control and the “Residual activity (% of control), CDK17/p35NCK” value (350 wild-type kinases [9]; Assay Conc. 1.0E-05 M) was 53 % of control. The “Residual activity (% of control), CDK17/p35NCK” value (350 wild-type kinases [9]; Assay Conc. 1.0E-06 M) was 89 % of control, the “Residual activity (% of control), CDK13/CycK” value (350 wild-type kinases [10]; Assay Conc. 1.0E-05 M) was 71 % of control and the “Residual activity (% of control), CDK13/CycK” value (350 wild-type kinases [10]; Assay Conc. 1.0E-06 M) was 83 % of control. For the same compound, the “Residual activity (% of control), CLK3” value (350 wild-type kinases [11]; Assay Conc. 1.0E-05 M) was 66 % of control, the “Residual activity (% of control), CLK3” value (350 wild-type kinases [11]; Assay Conc. 1.0E-06 M) was 90 % of control and the “Residual activity (% of control), DYRK1A” value (350 wild-type kinases [12]; Assay Conc. 1.0E-05 M) was 48 % of control. For the same compound, the “Residual activity (% of control), DYRK1A” value (350 wild-type kinases [12]; Assay Conc. 1.0E-06 M) was 75 % of control, the “Residual activity (% of control), CDK14/CycY” value (350 wild-type kinases [13]; Assay Conc. 1.0E-05 M) was 75 % of control and the “Residual activity (% of control), CDK14/CycY” value (350 wild-type kinases [13]; Assay Conc. 1.0E-06 M) was 102 % of control. The “Residual activity (% of control), ACVR1” value (350 wild-type kinases [14]; Assay Conc. 1.0E-05 M) was 93 % of control, the “Residual activity (% of control), ACVR1” value (350 wild-type kinases [14]; Assay Conc. 1.0E-06 M) was 107 % of control and the “Residual activity (% of control), COT” value (350 wild-type kinases [15]; Assay Conc. 1.0E-05 M) was 69 % of control. For the same compound, the “Residual activity (% of control), COT” value (350 wild-type kinases [15]; Assay Conc. 1.0E-06 M) was 96 % of control, the “Residual activity (% of control), CK1gamma3” value (350 wild-type kinases [16]; Assay Conc. 1.0E-05 M) was 99 % of control and the “Residual activity (% of control), CK1gamma3” value (350 wild-type kinases [16]; Assay Conc. 1.0E-06 M) was 106 % of control. The “Residual activity (% of control), CDK20/CycH” value (350 wild-type kinases [17]; Assay Conc. 1.0E-05 M) was 87 % of control, the “Residual activity (% of control), CDK20/CycH” value (350 wild-type kinases [17]; Assay Conc. 1.0E-06 M) was 103 % of control and the “Residual activity (% of control), CDK20/CycT1” value (350 wild-type kinases [17]; Assay Conc. 1.0E-05 M) was 84 % of control. For the same compound, the “Residual activity (% of control), CDK20/CycT1” value (350 wild-type kinases [17]; Assay Conc. 1.0E-06 M) was 99 % of control, the “Residual activity (% of control), DAPK3” value (350 wild-type kinases [18]; Assay Conc. 1.0E-05 M) was 82 % of control and the “Residual activity (% of control), DAPK3” value (350 wild-type kinases [18]; Assay Conc. 1.0E-06 M) was 98 % of control. For the same compound, the “Residual activity (% of control), CAMK1D” value (350 wild-type kinases [19]; Assay Conc. 1.0E-05 M) was 101 % of control, the “Residual activity (% of control), CAMK1D” value (350 wild-type kinases [19]; Assay Conc. 1.0E-06 M) was 113 % of control and the “Residual activity (% of control), CK1gamma1” value (350 wild-type kinases [20]; Assay Conc. 1.0E-05 M) was 97 % of control. For the same compound, the “Residual activity (% of control), CK1gamma1” value (350 wild-type kinases [20]; Assay Conc. 1.0E-06 M) was 92 % of control, the “Residual activity (% of control), ACK1” value (350 wild-type kinases [21]; Assay Conc. 1.0E-05 M) was 74 % of control and the “Residual activity (% of control), ACK1” value (350 wild-type kinases [21]; Assay Conc. 1.0E-06 M) was 90 % of control. For the same compound, the “Residual activity (% of control), CDK8/CycC” value (350 wild-type kinases [22]; Assay Conc. 1.0E-05 M) was 36 % of control, the “Residual activity (% of control), CDK8/CycC” value (350 wild-type kinases [22]; Assay Conc. 1.0E-06 M) was 91 % of control and the “Residual activity (% of control), DDR2” value (350 wild-type kinases [23]; Assay Conc. 1.0E-05 M) was 20 % of control. For the same compound, the “Residual activity (% of control), DDR2” value (350 wild-type kinases [23]; Assay Conc. 1.0E-06 M) was 79 % of control, the “Residual activity (% of control), BMPR1B” value (350 wild-type kinases [24]; Assay Conc. 1.0E-05 M) was 102 % of control and the “Residual activity (% of control), BMPR1B” value (350 wild-type kinases [24]; Assay Conc. 1.0E-06 M) was 109 % of control.
